Results from article PMC5748751, “Study of Structure and Permeability Relationship of Flavonoids in Caco-2 Cells” (Nutrients, 2017).
Read-outs that look alike come from different tables or passages of the source. Marks after values point to notes of the source that are not given here.

What was measured:
[1] = Cell viability (MTT) assay of flavonoids in Caco-2 cells; assay type: cell-based; settings: human
Method: The cytotoxicity of flavonoids and colchicine was evaluated by MTT assay. The cells were grown in 96-well plates at a density of 1 × 10^4 cells/well. After incubation with 40 μM flavonoid for 24 h, the cells were further incubated with an MTT solution (0.5 mg/mL) for 4 h at 37 °C. Finally, after removal of the supernatant, 150 μL dimethyl sulphoxide was added to each well to dissolve crystallized MTT. Absorbance was read at 570 nm with a multiskan spectrum microplate reader (Thermo Labsystems, Waltham, MA, USA). The percentage cell viability relative to that of the control cells was used as the cytotoxicity measure.

[2] = Permeability (bidirectional transport) of flavonoids in Caco-2 cell monolayers; assay type: in vitro ADME; settings: human; for Papp A→B at 60 min, 40 μM: Caco-2, apical to basolateral; for Papp A→B at 60 min, 40 μM / Papp B→A at 60 min, 40 μM: incubation 60 min, 37 °C, D-Hank's pH 7.4, mean ± SD, n = 3–6; for Papp B→A at 60 min, 40 μM: Caco-2, basolateral to apical; for Papp at 1 h, 40 μM: Caco-2 monolayer
Method: Caco-2 cells were cultured in MEM supplemented with 10% FBS, 1% NEAA, penicillin (100 U/mL) and streptomycin (100 μg/mL) in an atmosphere of 5% CO2 and 90% relative humidity at 37 °C. All cells used in this study were between passages 35 and 45 [16].
Caco-2 cells were seeded at a density of about 8 × 10^4 cells/cm^2 on a 12 wells Millicell hanging insert and left to grow for 19–21 days to reach confluence. Culture medium was replaced every other day for 14 days and daily thereafter. The integrity and transport ability of the Caco-2 cells monolayer were examined by measuring the trans-epithelial electrical resistance (TEER) with a Millicell voltammeter (Millicell ERS-2, Merck Millipore, Billerica, MA, USA) and running standard assays using Lucifer yellow CH as paracellular flux marker. […] Differentiation of Caco-2 cells was checked after 4 and 12 days by determining the activity of alkaline phosphatase with an assay kit (Nanjing Jiancheng Bioengineering Institute, Nanjing, China) and after 21 days transmission electron microscopy was performed on Caco-2 monolayer to evaluate differentiation.
The Caco-2 cell monolayer was washed with D-Hank’s buffer (pH 7.4). Then, the flavonoid (40 μM) was added to either the apical (AP, 0.4 mL) or basolateral (BL, 1.95 mL) side, while the receiving chamber contained the corresponding volume of D-Hank’s buffer and incubated for 1 h at 37 °C. Solutions from both AP and BL sides of Caco-2 cell monolayer were collected and immediately frozen, lyophilized and preserved at −80 °C for high performance liquid chromatography (HPLC) analysis. Papp was calculated from Equation (1), where ΔQ/Δt is the rate of the flavonoid on the accepting chamber (μM/s), A is the surface area of the hanging insert (cm^2) and C0 is the initial concentration of tested flavonoid in donating chamber (μM/mL).(1) Papp=ΔQ/Δt/AC0

Caco-2 cell monolayer = assay: Cellular accumulation (CA) of flavonoids in Caco-2 cell monolayer; settings: for CA A to B: accumulated in cell monolayer after transport apical to basolateral; for CA A to B / CA B to A: 40 μM, 1 h, normalized to cellular protein, mean ± SD, n = 3; for CA B to A: accumulated in cell monolayer after transport basolateral to apical; for CA: both sides (CA A to B and CA B to A)
[3] = Recovery (mass balance) of flavonoids during Caco-2 transport assay; assay type: in vitro ADME; settings: human, Caco-2, mass balance, both sides of insert plus cells
Method: The recovery of the flavonoid glycosides during the transport assays was determined by mass balance and was measured as total amount of the flavonoids on both sides of the insert and in the Caco-2 cells.

[4] = Caco-2, pH 7.4, as stated in text, direction not specified (bilateral)
[5] = transport apical to basolateral, read-out: Recovery (A to B, %)
[6] = transport basolateral to apical, read-out: Recovery (B to A, %)

Row | SMILES | viability at 24 h, 40 μM [1] [%] | Papp A→B at 60 min, 40 μM [2] [×10⁻⁶ cm/s] | Papp B→A at 60 min, 40 μM [2] [×10⁻⁶ cm/s] | Papp at 1 h, 40 μM [2, 4] [×10⁻⁶ cm/s] | CA A to B (Caco-2 cell monolayer) | CA B to A (Caco-2 cell monolayer) | CA (Caco-2 cell monolayer) | recovery [3, 5] [%] | recovery [3, 6] [%] | Papp at 1 h, 40 μM ([2]; pH 7.4, direction not specified (bilateral)) [×10⁻⁶ cm/s]
1 | O=c1cc(-c2ccccc2)oc2cc(O)c(O)c(O)c12 [Compound 4, Baicalein] | 96.7 ± 6.31 | 1.95 ± 0.53 | 0.71 ± 0.21 | < 2 | 1.182 ± 0.341 µmol/g | 3.272 ± 0.445 ^a μmol/g | – | – | – | –
2 | COc1ccc(-c2coc3cc(O)cc(O)c3c2=O)cc1 [Compound 28, Biochanin A] | 106 ± 6.44 | 11.1 ± 0.51 | 10.7 ± 2.98 | > 10 | 6.766 ± 1.583 µmol/g | 14.087 ± 1.287 ^b μmol/g | > 6 µmol/g | – | – | –
3 | O=c1c(O)c(-c2ccc(O)cc2O)oc2cc(O)cc(O)c12 [Compound 11, Morin] | 102 ± 3.62 | 8.23 ± 0.87 | 21.6 ± 0.32 | – | 0.129 ± 0.008 ^b μmol/g | 0.060 ± 0.011 µmol/g | – | 81.5 ± 6.7 | 90.1 ± 1.39 | –
4 | COc1cc2c(=O)c(-c3ccc(O)cc3)coc2cc1O [Compound 25, Glycitein] | 98.3 ± 4.6 | 12.4 ± 0.91 | 6.23 ± 0.46 | > 10 | 1.821 ± 0.774 ^a μmol/g | 0.158 ± 0.021 µmol/g | – | – | – | –
5 | O=C(/C=C/c1ccc(O)cc1)c1ccc(O)cc1O [Compound 29, Isoliquiritigenin] | 99.2 ± 7.94 | 13.8 ± 0.73 | 20 ± 1.29 | – | 4.393 ± 0.790 µmol/g | 8.804 ± 1.576 ^a μmol/g | – | – | – | –
6 | COc1ccc(-c2oc3cc(O)cc(O)c3c(=O)c2O)cc1 [Compound 13, Kaempferide] | 102 ± 6.15 | 0.35 ± 0.06 | 0.23 ± 0.03 | – | 2.746 ± 0.478 ^b μmol/g | 0.496 ± 0.249 µmol/g | – | – | – | –
7 | COc1c(O)cc(O)c2c(=O)cc(-c3ccccc3)oc12 [Compound 3, Wogonin] | 97.7 ± 8.39 | 16.4 ± 1.2 | 18.1 ± 1.62 | – | 1.038 ± 0.212 µmol/g | 1.586 ± 0.045 µmol/g | – | – | – | –
8 | COc1cc(-c2oc3cc(O)cc(O)c3c(=O)c2O)ccc1O [Compound 15, Isorhamnetin] | 93.6 ± 1.22 | 1.09 ± 0.02 | 0.9 ± 0.42 | – | 0.332 ± 0.066 ^a μmol/g | 0.076 ± 0.048 µmol/g | – | – | – | –
9 | O=c1c(-c2ccc(O)cc2)coc2cc(O)ccc12 [Compound 26, Daidzein] | 105 ± 4.56 | 33.9 ± 3.55 | 42.2 ± 3.11 | > 30 | 0.500 ± 0.104 µmol/g | 1.236 ± 0.117 ^b μmol/g | – | – | – | –
10 | COc1ccc(-c2coc3cc(O)ccc3c2=O)cc1 [Compound 23, Formononetin] | 94.6 ± 3.6 | 17.4 ± 1.78 | 18.3 ± 1.83 | > 10 | 3.819 ± 1.320 µmol/g | 4.842 ± 0.424 µmol/g | – | – | – | –
11 | O=c1cc(-c2ccc(O)cc2)oc2c([C@@H]3OC[C@H](O)[C@H](O)[C@H]3O)c(O)c([C@@H]3O[C@H](CO)[C@@H](O)[C@H](O)[C@H]3O)c(O)c12 [Compound 8, Schaftoside] | 103 ± 4.77 | 3.28 ± 0.32 | 2.81 ± 0.24 | < 6 | 0.024 ± 0.002 µmol/g | 0.044 ± 0.007 µmol/g | < 0.26 µmol/g | 72.3 ± 18.8 | 61.8 ± 0.72 | –
12 | C[C@@H]1O[C@@H](O[C@H]2[C@H](Oc3cc(O)c4c(c3)O[C@H](c3ccc(O)cc3)CC4=O)O[C@H](CO)[C@@H](O)[C@@H]2O)[C@H](O)[C@H](O)[C@H]1O [Compound 20, Naringin] | 99.1 ± 4.92 | 3.73 ± 0.73 | 5.09 ± 1.55 | < 6 | 0.058 ± 0.013 µmol/g | 0.068 ± 0.011 µmol/g | – | 93.2 ± 7.62 | 82.9 ± 11 | –
13 | O=c1c(O)c(-c2ccccc2)oc2cc(O)cc(O)c12 [Compound 9, Galangin] | 106 ± 7.79 | 1.94 ± 0.41 | 1.75 ± 0.44 | – | 3.780 ± 0.711 µmol/g | 9.286 ± 0.859 ^b μmol/g | – | – | – | –
14 | O=c1c(-c2ccc(O)cc2)coc2cc(O)cc(O)c12 [Compound 27, Genistein] | 103 ± 3.37 | 31.1 ± 2.13 | 30.5 ± 2.13 | – | 1.415 ± 0.276 µmol/g | 2.777 ± 0.220 ^b μmol/g | < 5 µmol/g | – | – | > 30
15 | COc1ccc(CCC(=O)c2c(O)cc(O[C@@H]3O[C@H](CO)[C@@H](O)[C@H](O)[C@H]3O[C@@H]3O[C@@H](C)[C@H](O)[C@@H](O)[C@H]3O)cc2O)cc1O [Compound 30, Neohesperidin dihydrochalcone] | 102 ± 6.35 | 4.25 ± 0.53 | 5.08 ± 1.08 | < 6 | 0.096 ± 0.010 µmol/g | 0.251 ± 0.012 µmol/g | – | 78.7 ± 1.3 | 79.5 ± 1.24 | –
16 | O=C1c2c(O)cc(O)cc2OC(c2ccc(O)c(O)c2)C1O (stereo not shown) [Compound 22, Taxifolin] | 99.5 ± 2 | 6.32 ± 1.16 | 26.1 ± 2.08 | > 20 | – | – | not detected | – | – | –
17 | O=c1c(O)c(-c2ccc(O)cc2)oc2cc(O)cc(O)c12 [Compound 12, Kaempferol] | 100 ± 4.53 | 6.68 ± 0.93 | 5.92 ± 0.45 | – | 8.368 ± 1.039 µmol/g | 11.887 ± 1.247 ^a μmol/g | > 6 µmol/g | – | – | –
